Patent US9789080B2, “Ophthalmic formulations of mycophenolic acid” (INSITE VISION INCORPORATED, priority 2015, dated 2017)

Assays:
[1] = dissolution of active ingredient in aqueous medium as a function of pH; type: physicochemical; settings: pH of aqueous medium adjusted to greater than 7.0
Excerpt: In an embodiment of the present disclosure, the pH of an ophthalmic formulation including mycophenolic acid or salt thereof in an aqueous medium with a reduced level of oxygen dissolved in the ophthalmic formulation can be adjusted to a pH of greater than 7.0, e.g., at least about 7.4, such as at least about 7.8. In an embodiment, the ophthalmic formulation of the present disclosure has a pH in a range of 7.4 to 7.8 with a specification of ±0.3 pH units.

[2] = Merck Index 14th Ed. 2006, monograph no. 6327; cited from earlier work

- dissolution of the active ingredient [1]: facilitates dissolution
SMILES: COc1c(C)c2c(c(O)c1C/C=C(\C)CCC(=O)O)C(=O)OC2 [mycophenolic acid]
- solubility in cold water [2]: almost insoluble
